# Test results from US20260356834A1, “ANTICONVULSIVE COMPOUNDS AND USES THEREOF” (Jazz Pharmaceuticals Research UK Limite, priority 2023, published 2026).
# Several values for one entry are separate records, joined by “and”; a condition that tells them apart may be missing. Equal entries are not always repeated. Marks after values point to notes of the source that are not given here.
# How the values were obtained:
# Format in all cases: in vivo
# [1] = test system: C57BL/6J mice; experiment: mouse maximal electroshock seizure threshold model (MEST); conditions: for CC50 +/− SEM: HPMC vehicle; for Change from vehicle (CC50): vs HPMC vehicle
# Method: Vehicle=1:2:17 ethanol:Solutol® (Kolliphor® HS 15):saline: 1 mL of ethanol and 2 mL of solutol were warmed to 60 °C and 17 mL of 0.9% saline was added slowly. […]
# Vehicle=0.5% HPMC and 0.1% Tween 80:0.5% HPMC and 0.1% Tween 80 in water.
# [2] = test system: RjOrl: Swiss mice; experiment: mouse 6 Hz (44 mA) model of partial seizures; conditions: for Mean Forelimb Clonus +/− SEM: score 0-2; for Change from vehicle 2 (forelimb clonus): vs vehicle 2 (1:2:17)
# [3] = test system: DBA/2 mice; experiment: mouse audiogenic seizure test
# Source text: The Audiogenic Seizure Test, which detects anticonvulsant activity, follows that described by Durmüller et al., 1993. Mice of the DBA/2 strain undergo an age-dependent sequence of convulsions (wild-running, clonic convulsion, tonic convulsion and respiratory arrest) within 60 seconds of exposure to a loud sound of 110-120 dB. The type of convulsions are consistent with aspects of generalised seizure in humans.
# Male DBA/2 mice (3-4 weeks old) were supplied by Janvier Labs (53940 Le Genest-Saint-Isle, France); weight range 6-13 g at the beginning of the experiment. Animals were acclimatized to the Test Facility for 1 day after delivery and randomly housed in groups of 5 in macrolon cages on wood litter with free access to food and water.
# The animal house was maintained under artificial lighting (12 hours) between 7:00 and 19:00 in a controlled ambient temperature of 22±2 °C and relative humidity between 30-70%.
# Mice were individually transferred (at 3-5 minutes intervals) from the preparation room into an adjacent experimental room and body temperature was measured using a rectal thermometer (Digital Laboratory Thermometer: Model BAT-12). Immediately after, they were placed in a Plexiglas jar (Diameter=40 cm; Height=35 cm) mounted with an electric bell (110-120 dB, supplier Leroy Merlin, France). Upon activating the bell, the occurrences and latencies to wild running fits, clonic and tonic seizures were measured. Deaths were also recorded. The bell was activated until a tonic seizure occurred, or for a maximum of 60 seconds.
# The experiment included groups of 10 mice per group. Experimenters were only partially blinded to treatment group as pre-treatment times were different.
# The test substance was evaluated at various doses, administered i.p. (10 ml/kg) 15 or 30 minutes before the test, and compared with a vehicle control group.
# Due to the number of animals tested, the experiment was divided in 2 sub-experiments on 2 separate days (7 days apart) with 5 mice per group in each sub-experiment.
# Data were tested for normality using d'Agostino-Pearson Test and found to not follow a normal distribution. Statistical outliers were not identified or removed because no behavioural outliers were identified. Quantitative data (latencies) with the test substance were analyzed by comparing treated groups with vehicle control using Kruskal-Wallis test followed by Dunn's multiple comparisons test. Quantitative data with the reference substance were analyzed using Mann-Whitney U test. Quantal data (frequencies) were analyzed by comparing treated groups with vehicle control using Fisher's Exact Probability test.
structure (smiles),measurement,setting,value
"CCCc1cc(O)c(-c2c(C)c(Cl)cn3ccnc23)c(O)c1 [Compound 4, 2-(6-Chloro-7-methylimidazo[1,2-a]pyridin-8-yl)-5-propylbenzene-1,3-diol]",CC50 +/− SEM,"[1]; 5 mg/kg p.o., 15 min",23.5 ± 2.1 mA
same,Change from vehicle (CC50),"[1]; 5 mg/kg p.o., 15 min",11%
same,CC50 +/− SEM,"[1]; 10 mg/kg p.o., 30 min",22.5 ± 0.3 mA
same,Change from vehicle (CC50),"[1]; 10 mg/kg p.o., 30 min",14%
same,CC50 +/− SEM,"[1]; 25 mg/kg p.o., 15 min",27.5 ± 1.3 mA
same,Change from vehicle (CC50),"[1]; 25 mg/kg p.o., 15 min",32%**
same,CC50 +/− SEM,"[1]; 25 mg/kg p.o., 30 min",60.8 ± 2.9 mA
same,Change from vehicle (CC50),"[1]; 25 mg/kg p.o., 30 min",132%***
same,CC50 +/− SEM,"[1]; 50 mg/kg p.o., 30 min",92.5 ± 3.2 mA and 125.0 ± 33.4 mA
same,CC50 +/− SEM,"[1]; 100 mg/kg p.o., 30 min",200.0 ± 3.7 mA
same,Change from vehicle (CC50),"[1]; 100 mg/kg p.o., 30 min",860%***
same,Mean Forelimb Clonus +/− SEM,"[2]; 10 mg/kg i.p., 30 min",1.00 ± 0.11
same,Change from vehicle 2 (forelimb clonus),"[2]; 10 mg/kg i.p., 30 min",+54%
same,Mean Forelimb Clonus +/− SEM,"[2]; 30 mg/kg i.p., 15 min",0.30 ± 0.11
same,Change from vehicle 2 (forelimb clonus),"[2]; 30 mg/kg i.p., 15 min",−54%
same,Mean Forelimb Clonus +/− SEM,"[2]; 60 mg/kg i.p., 30 min",0.30 ± 0.11
same,Change from vehicle 2 (forelimb clonus),"[2]; 60 mg/kg i.p., 30 min",−54%
same,Mean Forelimb Clonus +/− SEM,"[2]; 100 mg/kg i.p., 30 min",0.11 ± 0.07
same,Change from vehicle 2 (forelimb clonus),"[2]; 100 mg/kg i.p., 30 min",−83%**
same,sedation,[2]; 60 and 100 mg/kg i.p.,***p < 0.001; relatively low forelimb seizure scores in the 1:2:17 vehicle group may impact data interpretation; slight to moderate sedation observed with Compound 4 at 60 and 100 mg/kg.
same,"Clonic convulsion - latency, Change from vehicle","[3]; 3 mg/kg i.p., 30 min",−5%
same,"Clonic convulsion - presence, %","[3]; 3 mg/kg i.p., 30 min",100%
same,"Clonic convulsion - presence, Change from vehicle","[3]; 3 mg/kg i.p., 30 min",0%
same,"Tonic convulsion - latency, Change from vehicle","[3]; 3 mg/kg i.p., 30 min",+6%
same,"Tonic convulsion - presence, %","[3]; 3 mg/kg i.p., 30 min",90%
same,"Tonic convulsion - presence, Change from vehicle","[3]; 3 mg/kg i.p., 30 min",−10%
same,"Wild running - latency, Change from vehicle","[3]; 3 mg/kg i.p., 30 min",−2%
same,"Wild running - presence, %","[3]; 3 mg/kg i.p., 30 min",100%
same,"Wild running - presence, Change from vehicle","[3]; 3 mg/kg i.p., 30 min",0%
same,"Clonic convulsion - latency, Change from vehicle","[3]; 10 mg/kg i.p., 30 min",+5%
same,"Clonic convulsion - presence, %","[3]; 10 mg/kg i.p., 30 min",90%
same,"Clonic convulsion - presence, Change from vehicle","[3]; 10 mg/kg i.p., 30 min",−10%
same,"Tonic convulsion - latency, Change from vehicle","[3]; 10 mg/kg i.p., 30 min",+24%
same,"Tonic convulsion - presence, %","[3]; 10 mg/kg i.p., 30 min",70%
same,"Tonic convulsion - presence, Change from vehicle","[3]; 10 mg/kg i.p., 30 min",−30%
same,"Wild running - latency, Change from vehicle","[3]; 10 mg/kg i.p., 30 min",+4%
same,"Wild running - presence, %","[3]; 10 mg/kg i.p., 30 min",100%
same,"Wild running - presence, Change from vehicle","[3]; 10 mg/kg i.p., 30 min",0%
same,latency to clonic convulsions (significance in words),[3]; 30 mg/kg i.p. vs vehicle,significantly increased
same,latency to tonic convulsions (significance in words),[3]; 30 mg/kg i.p. vs vehicle,significantly increased
same,latency to wild running (significance in words),[3]; 30 mg/kg i.p. vs vehicle,significantly increased
same,"Clonic convulsion - latency, Change from vehicle","[3]; 30 mg/kg i.p., 15 min",+368%**
same,"Clonic convulsion - presence, %","[3]; 30 mg/kg i.p., 15 min",70%
same,"Clonic convulsion - presence, Change from vehicle","[3]; 30 mg/kg i.p., 15 min",−30%
same,"Tonic convulsion - latency, Change from vehicle","[3]; 30 mg/kg i.p., 15 min",+426%***
same,"Tonic convulsion - presence, %","[3]; 30 mg/kg i.p., 15 min",10%
same,"Wild running - latency, Change from vehicle","[3]; 30 mg/kg i.p., 15 min",+608%**
same,"Wild running - presence, %","[3]; 30 mg/kg i.p., 15 min",70%
same,"Wild running - presence, Change from vehicle","[3]; 30 mg/kg i.p., 15 min",−30%
same,latency to clonic convulsions (significance in words),[3]; 60 mg/kg i.p. vs vehicle,significantly increased
same,latency to tonic convulsions (significance in words),[3]; 60 mg/kg i.p. vs vehicle,significantly increased
same,latency to wild running (significance in words),[3]; 60 mg/kg i.p. vs vehicle,significantly increased
same,"Clonic convulsion - latency, Change from vehicle","[3]; 60 mg/kg i.p., 30 min, n = 9",+614%***
same,"Clonic convulsion - presence, %","[3]; 60 mg/kg i.p., 30 min, n = 9",11%
same,"Tonic convulsion - latency, Change from vehicle","[3]; 60 mg/kg i.p., 30 min, n = 9",+426%***
same,"Tonic convulsion - presence, %","[3]; 60 mg/kg i.p., 30 min, n = 9",0%
same,"Wild running - latency, Change from vehicle","[3]; 60 mg/kg i.p., 30 min, n = 9",+1150%***
same,"Wild running - presence, %","[3]; 60 mg/kg i.p., 30 min, n = 9",22%
same,number of mice displaying clonic convulsions (significance in words),"[3]; 3, 10 or 30 mg/kg i.p.",no significant differences
same,number of mice displaying wild running (significance in words),"[3]; 3, 10 or 30 mg/kg i.p.",no significant differences
same,latency to clonic convulsions (significance in words),[3]; 3 and 10 mg/kg i.p. vs vehicle,no significant differences
same,latency to wild running (significance in words),[3]; 3 and 10 mg/kg i.p. vs vehicle,no significant differences
same,number of mice displaying tonic convulsions (significance in words),[3]; 3 or 10 mg/kg i.p.,no significant differences
same,latency to tonic convulsions (significance in words),[3]; 3 or 10 mg/kg i.p. vs vehicle,no significant differences
